Target: T1, Catechol O-methyltransferase (Sus scrofa, UniProt Q99028)
T1 sequence (Q99028 whole entry): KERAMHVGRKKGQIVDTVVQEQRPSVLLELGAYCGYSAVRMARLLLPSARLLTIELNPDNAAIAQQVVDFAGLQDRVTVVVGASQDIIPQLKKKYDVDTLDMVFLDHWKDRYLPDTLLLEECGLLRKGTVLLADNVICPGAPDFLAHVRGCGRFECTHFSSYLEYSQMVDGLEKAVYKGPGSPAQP
Assay: Inhibitory activity against catechol O-methyltransferase
Settings: read-out: I50

Row | SMILES | IC50 [mM]
1 | C[S+](CCCCc1c[nH]c2ccccc12)C[C@H]1O[C@@H](n2cnc3c(N)ncnc32)[C@H](O)[C@@H]1O (some centres not stated) | 10
2 | C[S+](CCCc1c[nH]c2ccccc12)C[C@H]1O[C@@H](n2cnc3c(N)ncnc32)[C@H](O)[C@@H]1O (some centres not stated) | > 10

From ChEMBL document CHEMBL1122373, “Multisubstrate adducts as potential inhibitors of S-adenosylmethionine dependent methylases: inhibition of indole N-methyltransferase by (5'-deoxyadenosyl)[3-(3-indolyl)prop-1-yl]methylsulfonium and (5'-deoxyadenosyl)[4-(3-indolyl)but-1-yl]methylsulfonium salts” (J Med Chem, 1983)
